This is an account of results in a melting point compilation (Tetko et al.; mined from patent text by program, amines drawn as free bases though some values may be those of a salt).

Molecules are shown by their SMILES.

One may read the melting point as the temperature of the solid-liquid transition.

With `CCOC(CBr)(OCC)C(=NOC)C(=O)Cl`, the melting point was 33 to 35 °C.
The result for `Clc1nccc2[nH]cnc12` reads 100 to 102 °C; that for `CCOC(=O)C1=Cc2cc(Cl)cc(C)c2NC1C(F)(F)F` (stereo not given), 154 to 155 °C.
For `CCOC(=O)C(C)(C#N)Cc1cc([N+](=O)[O-])ccc1Cl` (stereo not given), the melting point lay within 72 to 74 °C.
For the compound `O=C(NCc1ccccc1)C1Cc2ccccc2N1S(=O)(=O)c1ccc(-c2ccc(F)cc2)cc1` (stereo not given), the melting point was 65 °C.
In turn, `Nc1c(C(=O)c2cc(F)cc(F)c2)[nH]c2cc(Cl)ccc12` yielded a melting point of 149 to 151 °C.
The value for `CCN(CC)CCNc1nc2cccnc2n(-c2ccc(C)cc2)c1=O` was 131 to 132 °C; that for `CCn1c(=O)n(CCC(C)C(C)=O)c(=O)c2c1ncn2CCOC` (stereo not given) was 83 to 84 °C.
The result for `CCc1noc(-c2cn(-c3cccc(OC)c3)cn2)n1` reads 89 to 90 °C; that for `CN(Cc1ccc2c(Br)c(OCc3nnn[nH]3)ccc2c1)C(=O)c1oc2ccccc2c1CCc1ccccc1`, 56 to 59 °C.
The compound `C#CCC(=NO)C1=CCCN(C)C1` yielded a melting point of 55 to 57 °C.
The value for `Cn1ccc(-c2ccc(C(=O)N3Cc4cccn4Cc4ccccc43)c(Cl)c2)n1` was 148 to 150 °C.
The value for `CC[C@]12CC[C@H]3[C@@H](CC(Cl)C4=CC(=O)CC[C@@H]43)[C@@H]1C=CC2=O` (stereo not given in full) was 136 °C.
The value for `COc1ccc(CNc2nnc(Cl)c3cc(Cl)c(Cl)cc23)cc1Cl` was 208 to 209 °C; that for `CP(C)(=O)C(CC(=O)O)C(=O)O` (stereo not given) was 174 to 177 °C.
Regarding `CC(C)c1cc(C(C)C)c2sc3ccccc3c(=O)c2c1`, the melting point was in the range of 74 to 76 °C.
The value for `CCn1cc(C(=O)NCc2ccc(Cl)cc2)c(=O)c2cc(C#CCO)sc21` was 217 to 219 °C; that for `Cn1c([N+](=O)[O-])cnc1-c1nc2ccccc2[nH]1` was 257 °C.
The result for `Clc1cnc2ccc(Cl)c(Cl)c2n1` reads 118 to 119 °C; that for `CC(=O)NC1CCN(c2cccc(C)n2)CC1`, 145 to 147 °C; that for `CC12C(=CCC3C1CCC1(C)C3CCC13OCCO3)CC(O)CC2O` (stereo not given), 205 to 206 °C.
The value for `CC(=O)OC1c2ccc(Cl)cc2CC1S(C)(=O)=O` (stereo not given) was 136 °C; that for `CCN1CCN(C(=O)c2ccc([N+](=O)[O-])cc2C)CC1` was 96 to 99 °C; that for `CC(C)c1cc(CCC(=O)O)n(Cc2ccc(Cl)cc2Cl)n1` was 105 to 108 °C.
`CCC12CCC3C4CCC(=O)C=C4C=CC3C1CCC2OC(C)=O` (stereo not given) displayed a melting point of 163 to 177 °C.
As to `COCCN(C)Cc1cc(C(=O)Nc2nc3c(OC)ccc(C4COCCOC4)c3s2)ccn1`, the melting point is 100 to 107 °C.
For the compound `CC(C)C(=O)Nc1ccc(N)c(C(F)(F)F)c1`, the melting point was 114 to 116 °C.
The value for `Cn1cc(C(=O)NCc2ccc(Cl)cc2)c(=O)c2cc(CCCCO)oc21` was 157 to 160 °C; that for `CC(C)(O)c1csc(S(N)(=O)=O)c1` was 125 to 127 °C; that for `CCCOc1nc2sc(Cl)cc2c(=O)n1CCC` was 62 to 65 °C.
The value for `O[C@H](COc1cccc2[nH]ccc12)CN1CC=C(c2c[nH]c3cc(Cl)ccc23)CC1` was 200 to 202 °C; that for `CCCCCCCCCCCCCCCCn1c2cc(Cl)ccc2c2ccc(Cl)cc21` was 82 to 83 °C; that for `O=C(c1ccccc1)n1c(=O)c(C(F)(F)F)cn(C2CC(O)C(COCc3ccc(Cl)cc3)O2)c1=O` (stereo not given) was 159 to 160 °C.
The value for `Cc1ccc([C@@H]2c3c(C)c(N4CCC(c5ccc(F)cc5)CC4)c(C)c(C)c3OC2(C)C)cc1` was 141 to 144 °C.
In the case of `Cc1ccc(Cc2cnc(NCCCNc3ncc(Br)cc3C)[nH]c2=O)cn1`, the melting point lay within 48 to 51 °C.
The value for `CC(C)(C)OC(=O)c1ccc(OCCNC(=O)C2Cc3ccccc3N2S(=O)(=O)c2ccc(-c3ccc(F)cc3OC(F)F)cc2)cc1` (stereo not given) was 60 to 70 °C.
The value for `COc1cc(S(=O)(=O)c2ccncc2)ccc1N` was 163 to 165 °C; that for `CCOC(=O)COc1cc2c(c(Cl)c1Cl)C(=O)C(CC)C2` (stereo not given) was 116 to 118 °C; that for `CC1(C)CCC(C)(C)c2cc(CC(=O)Oc3ccc(C(=O)O)cc3)ccc21` was 142 to 143 °C.
The value for `CC(C(=O)O)c1ccc2oc3ncccc3c(=O)c2c1` (stereo not given) was 194 to 195 °C; that for `O=C(O)CCSC(CCCc1ccccc1)c1ccc(OCc2ccc3ccccc3n2)cc1` (stereo not given) was 97 to 100 °C; that for `COc1ccccc1C=CC(=O)CC(=O)C=Cc1ccccc1OC` was 121 to 123 °C.
In turn, `C[C@@H](N1CC(=O)N(c2ccc(F)cc2F)C1=O)[C@@]1(c2ccc(F)cc2F)CO1` gave a melting point of 124 to 125 °C.
The result for `O=C(O)Cc1c(Cl)nc(-c2cccc(O)c2)n1Cc1ccccc1` reads 220 to 222 °C.
The value for `Cc1ccc(N(C=C(C#N)C#N)N=C(C#N)C#N)cc1C` was 162 to 163 °C; that for `Oc1ccc(-c2cc3ccc(O)cc3s2)cc1` was 305 to 306 °C; that for `Cc1nn(-c2ccc(C(=N)N)cc2)c(=O)n1-c1ccc(CCC(=O)O)cc1` was 303 to 305 °C.
The result for `COC(=O)c1nn(Cc2ccccc2)c2c1CCc1cc(OCc3ccccc3)ccc1-2` reads 168 to 169 °C; that for `O=c1c2cccnc2c(-c2cccc(Cl)c2)nn1-c1ccccc1`, 144 to 145 °C.
In turn, `NS(=O)(=O)c1cc(C(=O)O)cc([N+](=O)[O-])c1Nc1cccc(C(F)(F)F)c1` came in with a melting point of 213 to 215 °C.
The result for `CN1C(=O)CCC2=C1CCc1ccc(F)cc12` reads 122 °C; that for `COc1cc2ccc3c4cc(OCc5ccccc5)c(OC)cc4nnc3c2cc1OC`, 244 to 246 °C.
The result for `O=C1c2c(Cl)cccc2-n2cnc(-c3nnco3)c2[C@@H]2CCN12` reads 264 to 265 °C.
The value for `COc1cc(C)c(S(C)=O)cc1O` (stereo not given) was 148 to 150 °C.
Take `CC(C)(C)c1ccc(C(=O)CCCCCc2ccccc2)cc1NC(=O)CC1c2ccccc2Oc2ccccc21`: the melting point is 119 to 120 °C.
The value for `CC(=O)Nc1ccc(Oc2ccc(S(C)=O)cc2)cc1` (stereo not given) was 159 to 161 °C; that for `Cc1ccc(-c2nc(C(F)(F)F)oc2-c2ccc(S(C)(=O)=O)cc2)cc1` was 141 to 142 °C.
The value for `CN1C(=O)N(c2ccc(Cl)cc2)S(=O)(=O)c2ccc(OCC(=O)O)cc21` was 228 to 230 °C.
Compound `Cn1c(-c2ccccc2F)nnc1S(C)(=O)=O` registered a melting point of 128 to 130 °C.
The result for `CN(C)C(=O)Cc1nnc2n1-c1ccc(Cl)cc1C(c1ccccc1)=NC2` reads 204 to 206 °C; that for `CCC1(CO)CCCN2CCc3c([nH]c4ccccc34)C21` (stereo not given), 230 to 233 °C.
`CSc1nc(O)cc(=O)n1C` displayed a melting point of 198 °C.
The result for `O=C(Oc1cccc2c(OC(=O)c3ccc(O)cc3)c3c(OC(=O)c4ccc(O)cc4)cccc3cc12)c1ccc(O)cc1` reads 326 °C; that for `CC(=O)Nc1nc(NC(C)=O)c2[nH]cnc2n1`, 293 to 295 °C; that for `CCCN1C(=O)N2CCN=C2c2c1nc(C1CCCC1)n2C`, 246 to 247 °C.
In the case of `COc1cc(I)c(C(C)=O)cc1O`, the melting point lay within 109 to 111 °C.
The result for `CC(=O)NCC1CN=C(c2cc3cccc(N(C)S(=O)(=O)c4cccs4)c3[nH]2)S1` (stereo not given) reads 212 to 213 °C; that for `COc1ccc2c(c1)CCCC2(CO)NC(=O)c1c(F)cccc1F` (stereo not given), 174 to 175 °C; that for `CCOC(=O)c1ccc(NC(=O)CCc2ccc3ccccc3c2)cc1`, 119 to 121 °C.
The result for `CNc1nc(C#N)c(C#N)nc1NC(C)(C)C` reads above 250 °C; that for `COc1ccc(C)cc1NC(=O)Nc1ccc(N2CCN(C(=O)Nc3cc(OCCO)ccc3Cl)CC2)nc1`, 132 to 134 °C.
`Brc1ccc(C23CC4(c5ccc(Br)cc5)CC(c5ccc(Br)cc5)(C2)CC(c2ccc(Br)cc2)(C3)C4)cc1`: the melting point is 354 °C.
`O=C(/C=C/c1cccc(C(F)(F)F)c1)NC1CC1` registered a melting point of 98 °C.
The value for `O=C(NNc1ccccc1Cl)c1c(F)cccc1Cl` was 156 to 158 °C; that for `CCC(Oc1cc(N)c(Cl)cc1C(=O)NCCN(CC)CC)C(C)=O` (stereo not given) was 75 to 78 °C.
The value for `NC(=S)c1sc(N2CCCC2)nc1N` was 264 to 265 °C; that for `CCOC(=O)CCCCCNS(=O)(=O)c1ccc(Cl)cc1` was 102 to 105 °C.
The result for `C#CCNC(=O)c1cccc(F)c1N` reads 89 to 91 °C; that for `CCOC(=O)C1=Cc2cc(Cl)ccc2N(C)C1C(F)(F)F` (stereo not given), 118 to 120 °C.
`COc1cc(C)nc(NC(=O)NS(=O)(=O)c2ccccc2N)n1` showed a melting point of 210 to 215 °C.
As for `CCN(CC)c1ccc(/C=C/C(=O)CC(=O)/C=C/c2ccc(O)c(OC)c2)c(O)c1`, the melting point is 89 to 92 °C.
The value for `c1ccc(CCN2CCN(c3nc4cccc5c4n3CCC5)CC2)cc1` was 112 to 113 °C; that for `CCNc1nc(Cl)nc(Nc2ccc(OC)cc2)n1` was 174 to 176 °C; that for `COc1ccc(S(=O)(=O)N(CC(=O)O)Cc2ccccc2N)cc1` was 145 to 147 °C.
The result for `CN(C)C=Cc1c(N)cc([N+](=O)[O-])cc1[N+](=O)[O-]` reads 105 to 107 °C; that for `COc1ccc(-c2cc(-c3ccc(OC)c(OC)c3)c(C#N)c(C)n2)cc1`, 187 to 188 °C.
The result for `CCOC(=O)c1c(-c2ccc(OC)cc2)n2c3c(cccc13)OC(CCN1CCN(c3cc(C)ccn3)CC1)C2` (stereo not given) reads 149 to 150 °C.
`O=c1[nH]c(NCCCN(Cc2ccccc2)c2ccccn2)ncc1Cc1ccncc1`: the melting point fell in the range of 87 to 89 °C.
For the compound `CCNc1nc(N2CCN(Cc3ccccc3)CC2)ncc1C(=O)O`, the melting point fell in the range of 158 to 160 °C.
The value for `CCCCCCCCCCCCCCCCCCOc1cc(N(CC(=O)OC)CC(=O)OC)cc(S(=O)CC(=O)OC)c1` (stereo not given) was 81 to 83 °C.
